From paper PMC9413568, “Application of COSMO-RS-DARE as a Tool for Testing Consistency of Solubility Data: Case of Coumarin in Neat Alcohols” (Molecules, 2022)

Experiments:
[1] = set-up: method as in PMID 18583357; settings: dependence on pH; cited from earlier work
[2] = shake-flask solubility of coumarin in neat alcohols, spectrophotometric determination; assay type: physicochemical; settings: mean ± SD, n = 3
Description: This solution was then successfully diluted by transferring its fixed amounts to 10 mL volumetric flasks and adding methanol. The obtained series of solutions with decreasing coumarin concentrations was measured spectrophotometrically, and the absorbance values found at 310 nm wavelength were plotted against the corresponding concentration values. Three separate curves were prepared and then averaged, with the resulting linear equation being y = 42.346x + 0.0085. The curve can be characterized by high linearity, with the determination coefficient of R^2 = 0.9997. […] In this study, the shake-flask-type method of solubility determination was used. […] The prepared samples were incubated for 24 h at four different temperatures (25-40 °C with 5 °C intervals) using an ES-20/60 Orbital Shaker Incubator supplied by Biosan (Riga, Latvia). The temperature adjustment accuracy was 0.1 °C, and its variance during the daily cycle was ±0.5 °C. Moreover, the mixing of the samples at 60 rev/min was provided by the incubator. In the next step, the samples were filtered using a syringe with a PTFE filter with a […] pore size. All of the test tubes, syringes, and filters were preheated to the appropriate temperature to avoid the precipitation of dissolved coumarin. Finally, fixed amounts of the filtrate were transferred to test tubes, which were prefilled with a set amount of methanol, and samples prepared in this way were measured spectrophotometrically. The concentration of coumarin in the samples was determined through spectrophotometric measurements using an […] spectrophotometer from AOE Instruments (Shanghai, China). Spectra in the 190-700 nm wavelength range were recorded with a 1 nm resolution, and samples were diluted with methanol, which was also used as a reference. The absorbance values at 310 nm were used in conjunction with the calibration curve prepared earlier. Three samples were measured for each data point, and their concentrations were averaged and expressed as mole fractions.

O=c1ccc2ccccc2o1 [coumarin, 2H-1-benzopyran-2-one]
aqueous solubility [1]: decreases with the increase of pH | solubility expressed as molar fraction ([2]; 1-butanol, 25 °C): 16.95 ± 1.09 molar fraction ×10^3 | solubility expressed as molar fraction ([2]; 1-butanol, 30 °C): 34.87 ± 1.34 molar fraction ×10^3 | solubility expressed as molar fraction ([2]; 1-butanol, 35 °C): 60.64 ± 0.77 molar fraction ×10^3 | solubility expressed as molar fraction ([2]; 1-butanol, 40 °C): 94.59 ± 2.12 molar fraction ×10^3 | solubility expressed as molar fraction ([2]; 1-octanol, 25 °C): 19.18 ± 0.67 molar fraction ×10^3 | solubility expressed as molar fraction ([2]; 1-octanol, 30 °C): 37.37 ± 1.24 molar fraction ×10^3 | solubility expressed as molar fraction ([2]; 1-octanol, 35 °C): 67.23 ± 2.91 molar fraction ×10^3 | solubility expressed as molar fraction ([2]; 1-octanol, 40 °C): 104.05 ± 0.71 molar fraction ×10^3 | solubility expressed as molar fraction ([2]; 1-pentanol, 25 °C): 19.66 ± 0.28 molar fraction ×10^3 | solubility expressed as molar fraction ([2]; 1-pentanol, 30 °C): 42.95 ± 1.59 molar fraction ×10^3 | solubility expressed as molar fraction ([2]; 1-pentanol, 35 °C): 77.44 ± 0.55 molar fraction ×10^3 | solubility expressed as molar fraction ([2]; 1-pentanol, 40 °C): 126.01 ± 7.64 molar fraction ×10^3 | solubility expressed as molar fraction ([2]; 1-propanol, 25 °C): 41.02 ± 0.72 molar fraction ×10^3 | solubility expressed as molar fraction ([2]; 1-propanol, 30 °C): 74.27 ± 2.42 molar fraction ×10^3 | solubility expressed as molar fraction ([2]; 1-propanol, 35 °C): 121.65 ± 5.97 molar fraction ×10^3 | solubility expressed as molar fraction ([2]; 1-propanol, 40 °C): 181.10 ± 4.99 molar fraction ×10^3 | solubility expressed as molar fraction ([2]; 2-propanol, 25 °C): 30.17 ± 0.60 molar fraction ×10^3 | solubility expressed as molar fraction ([2]; 2-propanol, 30 °C): 60.35 ± 1.81 molar fraction ×10^3 | solubility expressed as molar fraction ([2]; 2-propanol, 35 °C): 101.22 ± 4.59 molar fraction ×10^3 | solubility expressed as molar fraction ([2]; 2-propanol, 40 °C): 154.88 ± 5.76 molar fraction ×10^3 | solubility expressed as molar fraction ([2]; ethanol, 25 °C): 49.43 ± 2.59 molar fraction ×10^3 | solubility expressed as molar fraction ([2]; ethanol, 30 °C): 90.16 ± 5.57 molar fraction ×10^3 | solubility expressed as molar fraction ([2]; ethanol, 35 °C): 142.45 ± 5.12 molar fraction ×10^3 | solubility expressed as molar fraction ([2]; ethanol, 40 °C): 210.96 ± 6.24 molar fraction ×10^3 | solubility expressed as molar fraction ([2]; methanol, 25 °C): 77.01 ± 4.68 molar fraction ×10^3 | solubility expressed as molar fraction ([2]; methanol, 30 °C): 127.52 ± 5.07 molar fraction ×10^3 | solubility expressed as molar fraction ([2]; methanol, 35 °C): 196.63 ± 7.30 molar fraction ×10^3 | solubility expressed as molar fraction ([2]; methanol, 40 °C): 286.50 ± 6.20 molar fraction ×10^3
